Data from ChEMBL document CHEMBL3885861, “Open TG-GATES”.

Species: Rattus norvegicus
Assay: Open TG-GATES - Regimen: Daily Repeat
Assay type: toxicity, organism-based, Sprague-Dawley
Parameters: regimen Daily Repeat, gender Male, age 6 weeks
Conditions: in vivo, po, route gavage; for APTT / Bas / Eos / Fbg / Hb / Ht / Lym / MCH / MCHC / MCV / Mono / Neu / PT / Plat / RBC / Ret / WBC: tissue Blood; for KIDNEY_L / KIDNEY_R / KIDNEY_TOTAL: tissue Kidney; for LIVER: tissue Liver; for A/G / ALP / ALT / AST / BUN / CRE / Ca / Cl / DBIL / GLC / IP / K / LDH / Na / PL / RALB / TBIL / TC / TG / TP / gamma-GTP: tissue Plasma
[1] = 15 mg/kg, 72 h, dose level Middle, time 3 day
[2] = 15 mg/kg, […], dose level Middle, time 7 day
[3] = 15 mg/kg, […], dose level Middle, time 14 day
[4] = 15 mg/kg, […], dose level Middle, time 28 day
[5] = 45 mg/kg, 72 h, dose level High, time 3 day
[6] = 45 mg/kg, […], dose level High, time 7 day
[7] = 45 mg/kg, […], dose level High, time 14 day
[8] = 45 mg/kg, […], dose level High, time 28 day

CC(=N)S [THIOACETAMIDE]
TERMINAL_BW [1]: 220.4 g
APTT [1]: 16.6 s
Bas [1]: 0%
Eos [1]: 1%
Fbg [1]: 254.2 mg/dL
Hb [1]: 14 g/dL
Ht [1]: 42.5%
Lym [1]: 84%
MCH [1]: 20.9 pg
MCHC [1]: 33.1%
MCV [1]: 63.2 fL
Mono [1]: 5.2%
Neu [1]: 9.6%
PT [1]: 12.2 s
Plat [1]: 113 x10_4/uL
RBC [1]: 672.4 x10_4/ul
Ret [1]: 5.5%
WBC [1]: 167.1 x10_2/uL
KIDNEY_L [1]: 1 g
KIDNEY_R [1]: 1 g
KIDNEY_TOTAL [1]: 1.9 g
LIVER [1]: 11.1 g
A/G [1]: 2.1
ALP [1]: 896 IU/L
ALT [1]: 29.2 IU/L
AST [1]: 57.2 IU/L
BUN [1]: 17 mg/dL
CRE [1]: 0.5 mg/dL
Ca [1]: 10.5 mg/dL
Cl [1]: 105.8 meq/L
DBIL [1]: 0.02 mg/dL
GLC [1]: 176.2 mg/dL
IP [1]: 7.5 mg/dL
K [1]: 5 meq/L
LDH [1]: 92.8 IU/L
Na [1]: 137.6 meq/L
PL [1]: 159.4 mg/dL
RALB [1]: 3.9 g/dL
TBIL [1]: 0.3 mg/dL
TC [1]: 76.4 mg/dL
TG [1]: 148 mg/dL
TP [1]: 5.8 g/dL
gamma-GTP [1]: 2.4 IU/L
TERMINAL_BW [2]: 248.4 g
TERMINAL_BW [3]: 276.3 g
TERMINAL_BW [4]: 324.2 g
APTT [2]: 16.4 s
Bas [2]: 0%
Eos [2]: 1%
Fbg [2]: 247.2 mg/dL
Hb [2]: 13.9 g/dL
Ht [2]: 42.1%
Lym [2]: 82.8%
MCH [2]: 20.8 pg
MCHC [2]: 33%
MCV [2]: 63 fL
Mono [2]: 5.4%
Neu [2]: 11.2%
PT [2]: 12.7 s
Plat [2]: 108.4 x10_4/uL
RBC [2]: 668.4 x10_4/ul
Ret [2]: 4.5%
WBC [2]: 170.4 x10_2/uL
APTT [3]: 16.4 s
Bas [3]: 0%
Eos [3]: 1%
Fbg [3]: 239.8 mg/dL
Hb [3]: 14.7 g/dL
Ht [3]: 44%
Lym [3]: 79.8%
MCH [3]: 19.7 pg
MCHC [3]: 33.3%
MCV [3]: 59.3 fL
Mono [3]: 7.6%
Neu [3]: 11.8%
PT [3]: 13 s
Plat [3]: 111.2 x10_4/uL
RBC [3]: 743.4 x10_4/ul
Ret [3]: 3.5%
WBC [3]: 202.6 x10_2/uL
APTT [4]: 16.6 s
Bas [4]: 0%
Eos [4]: 1%
Fbg [4]: 240.2 mg/dL
Hb [4]: 15.1 g/dL
Ht [4]: 44.7%
Lym [4]: 75.4%
MCH [4]: 19 pg
MCHC [4]: 33.9%
MCV [4]: 56.1 fL
Mono [4]: 8.6%
Neu [4]: 14.8%
PT [4]: 11.9 s
Plat [4]: 116.1 x10_4/uL
RBC [4]: 798.6 x10_4/ul
Ret [4]: 3.2%
WBC [4]: 149.2 x10_2/uL
KIDNEY_L [2]: 1.1 g
KIDNEY_R [2]: 1.1 g
KIDNEY_TOTAL [2]: 2.2 g
KIDNEY_L [3]: 1.2 g
KIDNEY_R [3]: 1.2 g
KIDNEY_TOTAL [3]: 2.3 g
KIDNEY_L [4]: 1.2 g
KIDNEY_R [4]: 1.2 g
KIDNEY_TOTAL [4]: 2.4 g
LIVER [2]: 12.8 g
LIVER [3]: 12.7 g
LIVER [4]: 14.1 g
A/G [2]: 2
ALP [2]: 926.6 IU/L
ALT [2]: 29.4 IU/L
AST [2]: 54.2 IU/L
BUN [2]: 19 mg/dL
CRE [2]: 0.6 mg/dL
Ca [2]: 10.5 mg/dL
Cl [2]: 105.6 meq/L
DBIL [2]: 0.016 mg/dL
GLC [2]: 172.4 mg/dL
IP [2]: 7.9 mg/dL
K [2]: 5.1 meq/L
LDH [2]: 97.4 IU/L
Na [2]: 136.2 meq/L
PL [2]: 152.6 mg/dL
RALB [2]: 4 g/dL
TBIL [2]: 0.3 mg/dL
TC [2]: 75.6 mg/dL
TG [2]: 114.8 mg/dL
TP [2]: 5.9 g/dL
gamma-GTP [2]: 2.4 IU/L
A/G [3]: 2.1
ALP [3]: 760.2 IU/L
ALT [3]: 26.2 IU/L
AST [3]: 47.2 IU/L
BUN [3]: 20.4 mg/dL
CRE [3]: 0.6 mg/dL
Ca [3]: 10.3 mg/dL
Cl [3]: 104.8 meq/L
DBIL [3]: 0.05 mg/dL
GLC [3]: 173.8 mg/dL
IP [3]: 7.3 mg/dL
K [3]: 4.8 meq/L
LDH [3]: 90.2 IU/L
Na [3]: 134.2 meq/L
PL [3]: 127 mg/dL
RALB [3]: 3.9 g/dL
TBIL [3]: 0.3 mg/dL
TC [3]: 59.4 mg/dL
TG [3]: 87.4 mg/dL
TP [3]: 5.8 g/dL
gamma-GTP [3]: 1.6 IU/L
A/G [4]: 2
ALP [4]: 660.6 IU/L
ALT [4]: 29.8 IU/L
AST [4]: 35.4 IU/L
BUN [4]: 20.4 mg/dL
CRE [4]: 0.6 mg/dL
Ca [4]: 10 mg/dL
Cl [4]: 105.4 meq/L
DBIL [4]: 0.014 mg/dL
GLC [4]: 164.8 mg/dL
IP [4]: 6.3 mg/dL
K [4]: 4.5 meq/L
LDH [4]: 114.6 IU/L
Na [4]: 134 meq/L
PL [4]: 125.4 mg/dL
RALB [4]: 3.9 g/dL
TBIL [4]: 0.2 mg/dL
TC [4]: 60.4 mg/dL
TG [4]: 62.4 mg/dL
TP [4]: 5.8 g/dL
gamma-GTP [4]: 1.6 IU/L
TERMINAL_BW [5]: 211.8 g
APTT [5]: 17.5 s
Bas [5]: 0%
Eos [5]: 1.4%
Fbg [5]: 296 mg/dL
Hb [5]: 14.4 g/dL
Ht [5]: 44%
Lym [5]: 75.4%
MCH [5]: 20.3 pg
MCHC [5]: 32.8%
MCV [5]: 62.1 fL
Mono [5]: 9.2%
Neu [5]: 14%
PT [5]: 12.4 s
Plat [5]: 112.5 x10_4/uL
RBC [5]: 711.2 x10_4/ul
Ret [5]: 4.8%
WBC [5]: 144.4 x10_2/uL
KIDNEY_L [5]: 1 g
KIDNEY_R [5]: 1.1 g
KIDNEY_TOTAL [5]: 2.1 g
LIVER [5]: 12.3 g
A/G [5]: 1.8
ALP [5]: 923.2 IU/L
ALT [5]: 47.8 IU/L
AST [5]: 179.6 IU/L
BUN [5]: 16.4 mg/dL
CRE [5]: 0.6 mg/dL
Ca [5]: 10.9 mg/dL
Cl [5]: 104.2 meq/L
DBIL [5]: 0.086 mg/dL
GLC [5]: 174.8 mg/dL
IP [5]: 8.1 mg/dL
K [5]: 5.1 meq/L
LDH [5]: 338.2 IU/L
Na [5]: 136 meq/L
PL [5]: 189.8 mg/dL
RALB [5]: 3.7 g/dL
TBIL [5]: 0.3 mg/dL
TC [5]: 102 mg/dL
TG [5]: 115.4 mg/dL
TP [5]: 5.8 g/dL
gamma-GTP [5]: 2.2 IU/L
TERMINAL_BW [6]: 217.5 g
TERMINAL_BW [7]: 249.4 g
TERMINAL_BW [8]: 277.2 g
APTT [6]: 16.5 s
Bas [6]: 0%
Eos [6]: 1%
Fbg [6]: 236 mg/dL
Hb [6]: 14.7 g/dL
Ht [6]: 44%
Lym [6]: 81%
MCH [6]: 20.1 pg
MCHC [6]: 33.5%
MCV [6]: 60 fL
Mono [6]: 5.6%
Neu [6]: 12.6%
PT [6]: 14.3 s
Plat [6]: 159.2 x10_4/uL
RBC [6]: 734.2 x10_4/ul
Ret [6]: 2%
WBC [6]: 180.4 x10_2/uL
APTT [7]: 16.7 s
Bas [7]: 0%
Eos [7]: 1%
Fbg [7]: 228.4 mg/dL
Hb [7]: 14.7 g/dL
Ht [7]: 43.7%
Lym [7]: 77.8%
MCH [7]: 19.7 pg
MCHC [7]: 33.5%
MCV [7]: 58.9 fL
Mono [7]: 5.4%
Neu [7]: 16.2%
PT [7]: 14.4 s
Plat [7]: 123.1 x10_4/uL
RBC [7]: 742.6 x10_4/ul
Ret [7]: 2.7%
WBC [7]: 176.2 x10_2/uL
APTT [8]: 17.6 s
Bas [8]: 0%
Eos [8]: 0.6%
Fbg [8]: 218 mg/dL
Hb [8]: 15.6 g/dL
Ht [8]: 45.4%
Lym [8]: 71.6%
MCH [8]: 18.8 pg
MCHC [8]: 34.5%
MCV [8]: 54.3 fL
Mono [8]: 6.6%
Neu [8]: 21%
PT [8]: 14 s
Plat [8]: 110.9 x10_4/uL
RBC [8]: 835.6 x10_4/ul
Ret [8]: 2.6%
WBC [8]: 183.8 x10_2/uL
KIDNEY_L [6]: 1 g
KIDNEY_R [6]: 1 g
KIDNEY_TOTAL [6]: 2 g
KIDNEY_L [7]: 1.2 g
KIDNEY_R [7]: 1.2 g
KIDNEY_TOTAL [7]: 2.3 g
KIDNEY_L [8]: 1.2 g
KIDNEY_R [8]: 1.2 g
KIDNEY_TOTAL [8]: 2.4 g
LIVER [6]: 11.1 g
LIVER [7]: 12.4 g
LIVER [8]: 14.3 g
A/G [6]: 1.9
ALP [6]: 946.4 IU/L
ALT [6]: 23.4 IU/L
AST [6]: 47 IU/L
BUN [6]: 18.4 mg/dL
CRE [6]: 0.5 mg/dL
Ca [6]: 10.4 mg/dL
Cl [6]: 105.4 meq/L
DBIL [6]: 0.026 mg/dL
GLC [6]: 164.2 mg/dL
IP [6]: 7.3 mg/dL
K [6]: 4.8 meq/L
LDH [6]: 192.8 IU/L
Na [6]: 136 meq/L
PL [6]: 137 mg/dL
RALB [6]: 3.6 g/dL
TBIL [6]: 0.2 mg/dL
TC [6]: 69.8 mg/dL
TG [6]: 57.2 mg/dL
TP [6]: 5.5 g/dL
gamma-GTP [6]: 2 IU/L
A/G [7]: 2.3
ALP [7]: 1052 IU/L
ALT [7]: 26 IU/L
AST [7]: 67 IU/L
BUN [7]: 18.6 mg/dL
CRE [7]: 0.6 mg/dL
Ca [7]: 10.2 mg/dL
Cl [7]: 105 meq/L
DBIL [7]: 0.08 mg/dL
GLC [7]: 165.8 mg/dL
IP [7]: 7.3 mg/dL
K [7]: 4.3 meq/L
LDH [7]: 161 IU/L
Na [7]: 135 meq/L
PL [7]: 154 mg/dL
RALB [7]: 3.7 g/dL
TBIL [7]: 0.3 mg/dL
TC [7]: 74.4 mg/dL
TG [7]: 83 mg/dL
TP [7]: 5.3 g/dL
gamma-GTP [7]: 2.4 IU/L
A/G [8]: 1.9
ALP [8]: 1032 IU/L
ALT [8]: 31.2 IU/L
AST [8]: 76 IU/L
BUN [8]: 20.8 mg/dL
CRE [8]: 0.6 mg/dL
Ca [8]: 9.9 mg/dL
Cl [8]: 106 meq/L
DBIL [8]: 0.2 mg/dL
GLC [8]: 148.8 mg/dL
IP [8]: 6.3 mg/dL
K [8]: 4.4 meq/L
LDH [8]: 195.4 IU/L
Na [8]: 134 meq/L
PL [8]: 138.4 mg/dL
RALB [8]: 3.5 g/dL
TBIL [8]: 0.3 mg/dL
TC [8]: 61.4 mg/dL
TG [8]: 20.8 mg/dL
TP [8]: 5.4 g/dL
gamma-GTP [8]: 6 IU/L
